Laboratory results as given in patent publication US12612403B2, “Nitrogen-containing heterocyclic derivative inhibitor, and preparation method therefor and use thereof” (SHANGHAI HANSOH BIOMEDICAL CO., LTD., priority 2024, dated 2026).

How the values were obtained:
[1] = test system: LDLR level in HepG2 cells; test: Effect on the LDLR level in HepG2 cells (ELISA); format: cell-based, Human; conditions: 48 hours, LDLR in lysate by ELISA
Method: 1. Experimental objective: To detect the effect of the compounds on the LDLR protein level.
2. […] A self-adhesive seal was applied, the plate was placed on a plate shaker at room temperature, gently shaken, uniformly mixed, and incubated for 2 hours. • 11) The plate was placed on the plate washer, the washing liquid was set to 350 μL per well, and the plate was washed 4 times repeatedly. • 12) 200 μL of Human LDLR conjugate was added, a self-adhesive seal was applied, and the plate was placed on the plate shaker, well mixed uniformly, and incubated for 2 hours. • 13) The plate was placed on the plate washer, the washing liquid was set to 350 μL per well, and the plate was washed 4 times repeatedly. • 14) 200 μL/well of Substrate solution was added, and the plate was placed in the dark, applied with a self-adhesive seal, placed on the plate shaker, well mixed uniformly, and incubated for 20 minutes. • 15) 50 μL/well of Stop solution was added and mixed uniformly over 20 min. • 16) The optical density (OD) value in each well was measured in sequence at a wavelength of 450 nm by the microplate reader.
3. Experimental data processing method: After the OD values were read by the microplate reader, the OD value of the 0-concentration standard in the standard group was subtracted from the OD values of the standards, control group, and samples to obtain the actual OD values for these wells. […]

[2] = test system: PCSK9 secreted by HepG2 cells; test: Effect on the concentration of PCSK9 secreted by HepG2 cells (ELISA); format: cell-based; conditions: Homo sapiens, 48 hours, PCSK9 in culture medium by ELISA
How it was run: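 HepG2 cells treated with compound for 48 h at 37° C., 5% CO2. Secreted PCSK9 in medium quantified by sandwich ELISA (HRP detection, OD 450 nm) against a 0–10 ng/mL standard curve. Inhibition relative to control; IC50 fitted from concentration–inhibition data.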

LDL-C = conditions: combined with a statin; cited from earlier work

Row | Structure (SMILES) | LDLR expression level [1] [%] | IC50 [2] [µM] | reduce LDL-C (LDL-C)
1 | O=C1c2c(cccc2C(F)(F)F)CN1c1ccc(N[C@H]2CC[C@H](Nc3nc4cc(F)ccn4n3)C2)nc1 [Example 25] | 132 | 17.6 | –
2 | O=C1[C@H](CC[C@H](O)c2ccc(F)cc2)[C@@H](c2ccc(O)cc2)N1c1ccc(F)cc1 [Ezetimibe] | – | – | 15-20%
